Data: patent publication US11214594B2, “Antimicrobial peptide having synergistic antibacterial effect with antibiotics on multidrug resistant bacteria, and use thereof” (priority 2016, dated 2022)
Converted amounts (≈) assume the structure as drawn. Where a SMILES comes first, the peptide text is derived from it.

Assays:
A. baumannii [1] = assay: microbe, parasite or virus in culture; assay type: cell-based, Acinetobacter baumannii; conditions: for Antibacterial activity relative to PapMA-1: A. baumannii and antibiotic-resistant strains thereof
Outline: (§1)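 MIC read-out = lowest peptide level with no bacterial proliferation. Strains diluted in MH medium to 2×10^6 CFU; peptide twofold serial dilutions in MH added 1:1 in microtiter wells.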

MDRAB 12035 = assay: microbe, parasite or virus in culture; assay type: cell-based, Acinetobacter baumannii
Outline: as §1

S. typhimurium = assay: microbe, parasite or virus in culture; assay type: cell-based, Salmonella typhimurium
Outline: as §1

S. aureus = assay: microbe, parasite or virus in culture; assay type: cell-based, Staphylococcus aureus
Outline: as §1

MDREC 1229 = assay: MIC of antibiotic during combined treatment with antimicrobial peptide; assay type: cell-based, Escherichia coli
Outline: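 Broth microdilution in MH medium; strains were diluted to 2×10^6 CFU per ml before plating. Peptide was serially diluted stepwise at 2:1 starting from its MIC, and MH-diluted antibiotic was then added to determine MIC. The reversed arrangement was also tested.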

A. baumannii [2] = assay: as above; assay type: cell-based, Acinetobacter baumannii; conditions: for Antibiotic MIC, Erythromycin / Antibiotic MIC, Linezolid / Antibiotic MIC, Vancomycin: A. baumannii
Outline: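 First, antibiotic solution is diluted with MH medium; next, the dilution is dispensed into wells containing peptide; finally, the orientation is swapped and MIC of each mixture determined.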

gram-negative bacteria = assay: MIC, summary statements for gram-negative bacteria; assay type: cell-based; conditions: gram-negative bacteria
Protocol: For the antibacterial activity, a minimal inhibitory concentration (MIC) of a peptide in which fungus bodies were not split in an MH medium with sufficient nutrients was measured.
Specifically, the strains described in the following [Table 2] were purchased and diluted with an MH medium such that the number of bacteria was 2×10^6 colony-forming units (CFUs), 100 μl of each of the diluted strains was aliquoted into a 96-well microtiter plate, and then 100 μl of a peptide solution diluted with the MH medium (solution diluted stepwise at 2: 1) was added to each well.

[3] = peptide treatment concentration 1 μg/ml
[4] = peptide treatment concentration 2 μg/ml
[5] = peptide treatment concentration 4 μg/ml
[6] = peptide treatment concentration 6 μg/ml
[7] = peptide treatment concentration 8 μg/ml
[8] = peptide treatment concentration 16 μg/ml
[9] = peptide treatment concentration 32 μg/ml
[10] = peptide treatment concentration 64 μg/ml
[11] = combined with peptide at 1 μg/ml
[12] = combined with peptide at 2 μg/ml
[13] = combined with peptide at 4 μg/ml
[14] = combined with peptide at 6 μg/ml
[15] = combined with peptide at 8 μg/ml
[16] = combined with peptide at 16 μg/ml
[17] = combined with peptide at 32 μg/ml
[18] = combined with peptide at 64 μg/ml

Structure (SMILES): CC[C@H](C)[C@H](NC(=O)[C@H](CCCCN)NC(=O)[C@H](Cc1c[nH]c2ccccc12)NC(=O)[C@@H](N)CCCNC(=N)N)C(=O)N[C@@H](Cc1ccccc1)C(=O)N[C@@H](CCCCN)C(=O)N[C@@H](CCCCN)C(=O)N[C@H](C(=O)N1CCC[C@H]1C(=O)N[C@@H](CCCCN)C(=O)N[C@@H](Cc1ccccc1)C(=O)N[C@@H](CC(C)C)C(=O)N[C@@H](Cc1c[nH]cn1)C(=O)N[C@@H](CO)C(=O)N[C@@H](Cc1c[nH]c2ccccc12)C(=O)N[C@@H](CCCCN)C(=O)N[C@@H](CCCCN)C(=O)N[C@@H](Cc1c[nH]c2ccccc12)C(N)=O)[C@@H](C)CC [PapMA-4, RWK IFK KIP KFL HSW KKW-NH2] (H-RWKIFKKIPKFLHSWKKW-NH2; N-terminus assumed)
- Minimal inhibitory concentration MIC (A. baumannii [1]): 16 µg/mL (≈ 6.51 µM)
- Peptide MIC, peptide alone (A. baumannii [1]): 16 µg/mL
- Antibacterial activity relative to PapMA-1 (A. baumannii [1]): 4 times
- Minimal inhibitory concentration MIC (MDRAB 12035): 16 µg/mL (≈ 6.51 µM)
- Peptide MIC, peptide alone (MDRAB 12035): 16 µg/mL
- Minimal inhibitory concentration MIC (S. typhimurium): 32 µg/mL (≈ 13 µM)
- Minimal inhibitory concentration MIC (S. aureus): >128 µg/mL
- Antibiotic MIC, Erythromycin (MDREC 1229; [3]): 64 µg/mL
- Antibiotic MIC, Linezolid (MDREC 1229; [3]): >128 µg/mL
- Antibiotic MIC, Vancomycin (MDREC 1229; [3]): >128 µg/mL
- Antibiotic MIC, Erythromycin (MDREC 1229; [4]): 32 µg/mL
- Antibiotic MIC, Linezolid (MDREC 1229; [4]): 64 µg/mL
- Antibiotic MIC, Vancomycin (MDREC 1229; [4]): >128 µg/mL
- Antibiotic MIC, Erythromycin (MDREC 1229; [5]): 16 µg/mL
- Antibiotic MIC, Linezolid (MDREC 1229; [5]): 64 µg/mL
- Antibiotic MIC, Vancomycin (MDREC 1229; [5]): >128 µg/mL
- Antibiotic MIC, Erythromycin (MDREC 1229; [6]): 16 µg/mL
- Antibiotic MIC, Linezolid (MDREC 1229; [6]): 64 µg/mL
- Antibiotic MIC, Vancomycin (MDREC 1229; [6]): >128 µg/mL
- Antibiotic MIC, Erythromycin (MDREC 1229; [7]): 4 µg/mL
- Antibiotic MIC, Linezolid (MDREC 1229; [7]): 16 µg/mL
- Antibiotic MIC, Vancomycin (MDREC 1229; [7]): 128 µg/mL
- Antibiotic MIC, Erythromycin (MDREC 1229; [8]): 0.25 µg/mL
- Antibiotic MIC, Linezolid (MDREC 1229; [8]): 4 µg/mL
- Antibiotic MIC, Vancomycin (MDREC 1229; [8]): 32 µg/mL
- Antibiotic MIC, Erythromycin (MDREC 1229; [9]): 0 µg/mL
- Antibiotic MIC, Linezolid (MDREC 1229; [9]): 0 µg/mL
- Antibiotic MIC, Vancomycin (MDREC 1229; [9]): 0 µg/mL
- Antibiotic MIC, Erythromycin (MDREC 1229; [10]): 0 µg/mL
- Antibiotic MIC, Linezolid (MDREC 1229; [10]): 0 µg/mL
- Antibiotic MIC, Vancomycin (MDREC 1229; [10]): 0 µg/mL
- Antibiotic MIC, Erythromycin (A. baumannii [2]; [11]): 32 µg/mL
- Antibiotic MIC, Linezolid (A. baumannii [2]; [11]): >128 µg/mL
- Antibiotic MIC, Vancomycin (A. baumannii [2]; [11]): >128 µg/mL
- Antibiotic MIC, Erythromycin (A. baumannii [2]; [12]): 16 µg/mL
- Antibiotic MIC, Linezolid (A. baumannii [2]; [12]): 64 µg/mL
- Antibiotic MIC, Vancomycin (A. baumannii [2]; [12]): 128 µg/mL
- Antibiotic MIC, Erythromycin (A. baumannii [2]; [13]): 8 µg/mL
- Antibiotic MIC, Linezolid (A. baumannii [2]; [13]): 64 µg/mL
- Antibiotic MIC, Vancomycin (A. baumannii [2]; [13]): 64 µg/mL
- Antibiotic MIC, Erythromycin (A. baumannii [2]; [14]): 4 µg/mL
- Antibiotic MIC, Linezolid (A. baumannii [2]; [14]): 32 µg/mL
- Antibiotic MIC, Vancomycin (A. baumannii [2]; [14]): 64 µg/mL
- Antibiotic MIC, Erythromycin (A. baumannii [2]; [15]): 4 µg/mL
- Antibiotic MIC, Linezolid (A. baumannii [2]; [15]): 16 µg/mL
- Antibiotic MIC, Vancomycin (A. baumannii [2]; [15]): 32 µg/mL
- Antibiotic MIC, Erythromycin (A. baumannii [2]; [16]): 0 µg/mL
- Antibiotic MIC, Linezolid (A. baumannii [2]; [16]): 0 µg/mL
- Antibiotic MIC, Vancomycin (A. baumannii [2]; [16]): 0 µg/mL
- Antibiotic MIC, Erythromycin (A. baumannii [2]; [17]): 0 µg/mL
- Antibiotic MIC, Linezolid (A. baumannii [2]; [17]): 0 µg/mL
- Antibiotic MIC, Vancomycin (A. baumannii [2]; [17]): 0 µg/mL
- Antibiotic MIC, Erythromycin (A. baumannii [2]; [18]): 0 µg/mL
- Antibiotic MIC, Linezolid (A. baumannii [2]; [18]): 0 µg/mL
- Antibiotic MIC, Vancomycin (A. baumannii [2]; [18]): 0 µg/mL
- Antibacterial activity (in words) (gram-negative bacteria): comparable to papiliocin or melittin

Structure (SMILES): CC[C@H](C)[C@H](NC(=O)[C@H](CCCCN)NC(=O)[C@H](Cc1c[nH]c2ccccc12)NC(=O)[C@@H](N)CCCNC(=N)N)C(=O)N[C@@H](Cc1ccccc1)C(=O)N[C@@H](CCCCN)C(=O)N[C@@H](CCCCN)C(=O)N[C@H](C(=O)N1CCC[C@H]1C(=O)N[C@@H](CCCCN)C(=O)N[C@@H](Cc1ccccc1)C(=O)N[C@@H](CC(C)C)C(=O)N[C@@H](Cc1c[nH]cn1)C(=O)N[C@@H](CO)C(=O)N[C@@H](C)C(=O)N[C@@H](CCCCN)C(=O)N[C@@H](CCCCN)C(=O)N[C@@H](Cc1c[nH]c2ccccc12)C(N)=O)[C@@H](C)CC [PapMA-2, RWK IFK KIP KFL HSA KKW-NH2] (H-RWKIFKKIPKFLHSAKKW-NH2; N-terminus assumed)
- Minimal inhibitory concentration MIC (A. baumannii [1]): 16 µg/mL (≈ 6.83 µM)
- Peptide MIC, peptide alone (A. baumannii [1]): 16 µg/mL
- Antibacterial activity relative to PapMA-1 (A. baumannii [1]): 4 times
- Minimal inhibitory concentration MIC (MDRAB 12035): 16 µg/mL (≈ 6.83 µM)
- Peptide MIC, peptide alone (MDRAB 12035): 16 µg/mL
- Minimal inhibitory concentration MIC (S. typhimurium): 32 µg/mL (≈ 13.7 µM)
- Minimal inhibitory concentration MIC (S. aureus): >128 µg/mL
- Antibiotic MIC, Erythromycin (MDREC 1229; [3]): 64 µg/mL
- Antibiotic MIC, Linezolid (MDREC 1229; [3]): >128 µg/mL
- Antibiotic MIC, Vancomycin (MDREC 1229; [3]): >128 µg/mL
- Antibiotic MIC, Erythromycin (MDREC 1229; [4]): 32 µg/mL
- Antibiotic MIC, Linezolid (MDREC 1229; [4]): 64 µg/mL
- Antibiotic MIC, Vancomycin (MDREC 1229; [4]): >128 µg/mL
- Antibiotic MIC, Erythromycin (MDREC 1229; [5]): 16 µg/mL
- Antibiotic MIC, Linezolid (MDREC 1229; [5]): 32 µg/mL
- Antibiotic MIC, Vancomycin (MDREC 1229; [5]): 128 µg/mL
- Antibiotic MIC, Erythromycin (MDREC 1229; [6]): 8 µg/mL
- Antibiotic MIC, Linezolid (MDREC 1229; [6]): 32 µg/mL
- Antibiotic MIC, Vancomycin (MDREC 1229; [6]): 128 µg/mL
- Antibiotic MIC, Erythromycin (MDREC 1229; [7]): 2 µg/mL
- Antibiotic MIC, Linezolid (MDREC 1229; [7]): 16 µg/mL
- Antibiotic MIC, Vancomycin (MDREC 1229; [7]): 64 µg/mL
- Antibiotic MIC, Erythromycin (MDREC 1229; [8]): 0.5 µg/mL
- Antibiotic MIC, Linezolid (MDREC 1229; [8]): 8 µg/mL
- Antibiotic MIC, Vancomycin (MDREC 1229; [8]): 16 µg/mL
- Antibiotic MIC, Erythromycin (MDREC 1229; [9]): 0.125 µg/mL
- Antibiotic MIC, Linezolid (MDREC 1229; [9]): 4 µg/mL
- Antibiotic MIC, Vancomycin (MDREC 1229; [9]): 8 µg/mL
- Antibiotic MIC, Erythromycin (MDREC 1229; [10]): 0 µg/mL
- Antibiotic MIC, Linezolid (MDREC 1229; [10]): 0 µg/mL
- Antibiotic MIC, Vancomycin (MDREC 1229; [10]): 0 µg/mL
- Synergistic effect of antibacterial activity with existing antibiotics compared with PapMA-1 (A. baumannii [2]; A. baumannii and MDRAB 12035): higher level than the PapMA-1 peptide
- Antibiotic MIC, Erythromycin (A. baumannii [2]; [11]): 16 µg/mL
- Antibiotic MIC, Linezolid (A. baumannii [2]; [11]): >128 µg/mL
- Antibiotic MIC, Vancomycin (A. baumannii [2]; [11]): >128 µg/mL
- Antibiotic MIC, Erythromycin (A. baumannii [2]; [12]): 16 µg/mL
- Antibiotic MIC, Linezolid (A. baumannii [2]; [12]): 64 µg/mL
- Antibiotic MIC, Vancomycin (A. baumannii [2]; [12]): 128 µg/mL
- Antibiotic MIC, Erythromycin (A. baumannii [2]; [13]): 8 µg/mL
- Antibiotic MIC, Linezolid (A. baumannii [2]; [13]): 32 µg/mL
- Antibiotic MIC, Vancomycin (A. baumannii [2]; [13]): 32 µg/mL
- Antibiotic MIC, Erythromycin (A. baumannii [2]; [14]): 1 µg/mL
- Antibiotic MIC, Linezolid (A. baumannii [2]; [14]): 16 µg/mL
- Antibiotic MIC, Vancomycin (A. baumannii [2]; [14]): 16 µg/mL
- Antibiotic MIC, Erythromycin (A. baumannii [2]; [15]): 0.125 µg/mL
- Antibiotic MIC, Linezolid (A. baumannii [2]; [15]): 8 µg/mL
- Antibiotic MIC, Vancomycin (A. baumannii [2]; [15]): 8 µg/mL
- Antibiotic MIC, Erythromycin (A. baumannii [2]; [16]): 0 µg/mL
- Antibiotic MIC, Linezolid (A. baumannii [2]; [16]): 0 µg/mL
- Antibiotic MIC, Vancomycin (A. baumannii [2]; [16]): 0 µg/mL
- Antibiotic MIC, Erythromycin (A. baumannii [2]; [17]): 0 µg/mL
- Antibiotic MIC, Linezolid (A. baumannii [2]; [17]): 0 µg/mL
- Antibiotic MIC, Vancomycin (A. baumannii [2]; [17]): 0 µg/mL
- Antibiotic MIC, Erythromycin (A. baumannii [2]; [18]): 0 µg/mL
- Antibiotic MIC, Linezolid (A. baumannii [2]; [18]): 0 µg/mL
- Antibiotic MIC, Vancomycin (A. baumannii [2]; [18]): 0 µg/mL
- Antibacterial activity (in words) (gram-negative bacteria): comparable to papiliocin or melittin
